Literature values, collected in patent US20180042936A1, “MAINTENANCE THERAPY USING TIANEPTINE” (GENOMIND, Inc., priority 2016, published 2018).
Read-outs that look alike come from different tables or passages of the source.

Tests used:
[1] = some individuals with treatment-resistant major depressive disorder and bipolar disorder
[2] = system: brain derived neurotrophic factor (BDNF); settings: responders compared to non-responders

In the case of `CNC1(c2ccccc2Cl)CCCCC1=O` (racemic) [Ketamine, (RS)-2-(2-Chlorophenyl)-2-(methylamino)cyclohexanone], the “time to anti-depression efficacy” value [1] is given as no more than 1 h, the “plasma BDNF levels” value ([2]; 240 min post-infusion (Haile et al. 2014)) is given as “significantly increased” and the “plasma BDNF levels” value ([2]; post-infusion of ketamine (Example 1)) is given as “increases plasma BDNF levels”.
